Results as given in ChEMBL document CHEMBL1144145, “Sesquiterpene polyol esters from the leaves of maytenus macrocarpa” (J Nat Prod, 1999).

Key:
Format in all cases: functional, cell-based
[1] = Cytotoxicity against human MEL28 cells by […]; conditions: SK-MEL-28
A549 = test: Cytotoxicity against human A549 cells by […]
HT-29 = test: Cytotoxicity against human HT-29 cells by […]
P388 = test: Cytotoxicity against mouse P388 cells by […]

Measured: IC50

CC(=O)OC[C@@]12[C@@H](OC(=O)c3ccccc3)CC[C@](C)(O)[C@]13OC(C)(C)[C@H]([C@H](OC(C)=O)[C@H]2OC(=O)c1ccccc1)[C@H]3OC(C)=O
> 25 µg/mL: all assays above
